From ChEMBL document CHEMBL1148685, “3,4-Dihydro-1H-[1,3]oxazino[4,5-c]acridines as a new family of cytotoxic drugs” (Bioorg Med Chem Lett, 2006)
Calls of active or inactive are those of the source. No cut-off for these calls is given here.

What was measured:
Type in all cases: functional, cell-based
Conditions in all cases: Homo sapiens
HT-29 [1] = experiment: Cytotoxicity against HT29 cell line
HT-29 [2] = experiment: Cytotoxicity against HT29 cells in presence of Escherichia coli nitroreductase
HT-29 [3] = experiment: Cytotoxicity against HT29 cells in hypoxic condition after 5 hrs

Compound | IC50 (HT-29 [1]) | IC50 (HT-29 [2]) | Activity (HT-29 [3])
ClCC1Nc2ccc3cc4ccccc4nc3c2CO1 (stereo not given) | 1250 nM |  | 
BrCC1Nc2ccc3cc4ccccc4nc3c2CO1 (stereo not given) | 1250 nM |  | 
c1ccc(COCC2Nc3ccc4cc5ccccc5nc4c3CO2)cc1 (stereo not given) | 4000 nM |  | 
O=[N+]([O-])c1ccc(C2Nc3ccc4cc5ccccc5nc4c3CO2)cc1 (stereo not given) | 2300 nM | 200 nM | inactive
CC1Nc2ccc3cc4ccccc4nc3c2CO1 (stereo not given) | 600 nM |  | 
COc1cccc2c1C(=O)c1c(O)c3c(c(O)c1C2=O)C[C@@](O)(C(=O)CO)C[C@@H]3O[C@H]1C[C@H](N)[C@H](O)[C@H](C)O1 [DOXORUBICIN] | 2370 nM |  | 
c1ccc(C2Nc3ccc4cc5ccccc5nc4c3CO2)cc1 (stereo not given) | 400 nM |  | 
c1ccc2nc3c4c(ccc3cc2c1)NCOC4 | 2250 nM |  | 
